Source: US20240336654A1, “ANTIMICROBIAL PEPTIDOMIMETICS” (SPEXIS AG, priority 2021, published 2024)
Where a SMILES comes first, the peptide text is derived from it. Bridges are numbered along the chain shown (N, C = ends). [ ]: non-standard residue; d: D form. Dab(iPr) = CC(C)NCC[C@H](N)C(=O)O; Hyp = O=C(O)[C@@H]1C[C@@H](O)CN1; Cit = NC(=O)NCCC[C@H](N)C(=O)O; Pen = CC(C)(S)[C@H](N)C(=O)O; dDab = NCC[C@@H](N)C(=O)O; Orn = NCCC[C@H](N)C(=O)O; Dab = NCC[C@H](N)C(=O)O

Columns and labels:
Format in all cases: cell-based
[1] = system: Klebsiella pneumoniae SSI3010; conditions: SSI3010
Method in brief: (§1)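 MICs were determined by CLSI broth microdilution in cation-adjusted Mueller-Hinton II broth with about 5×10^5 CFU/mL inoculum. Peptides were tested in two-fold serial dilutions with 0.002% polysorbate 80 final. MIC in μg/mL is the lowest concentration with no visible growth after 18-20 h at 35 °C.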

[2] = system: Escherichia coli MCR-1 Af 45; conditions: MCR-1 Af 45
Method in brief: as §1

[3] = system: Escherichia coli ATCC 25922; conditions: ATCC 25922
Method in brief: as §1

[4] = system: human red blood cells (hRBC); conditions: red cells of human, 1 h, 200 μg/mL
Method in brief: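 Peptides at 200 μg/mL incubated 1 h at 37 °C with 20% (v/v) washed human RBC, shaking. Hemolysis from supernatant OD540, expressed as percent of 2.5% Triton X-100 lysis, with PBS as 0%.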

Row | Compound | Klebsiella pneumoniae SSI3010 MIC [1] [µg/mL] | Escherichia coli MCR-1 Af45 MIC [2] [µg/mL] | Escherichia coli ATCC 25922 MIC [3] [µg/mL] | Hemolysis at 0.2 g/L [4] [%]
1 | CC[C@H](C)[C@H](NC(=O)[C@@H]1C[C@@H](O)CN1C(=O)[C@@H](N)C(C)C)C(=O)N[C@@H]1C(=O)N[C@@H](Cc2ccc(O)cc2)C(=O)N[C@@H](CO)C(=O)N[C@@H](CC(N)=O)C(=O)N[C@@H](CCCNC(=N)N)C(=O)N[C@@H](CCN)C(=O)N[C@@H]([C@@H](C)O)C(=O)N[C@H](CCN)C(=O)N[C@@H](CCCCN)C(=O)N[C@@H](CCCNC(N)=O)C(=O)N[C@@H](CCN)C(=O)N[C@H](C(=O)N[C@@H](Cc2ccc(O)cc2)C(=O)O)CSSC1(C)C [Example 53, Val-Hyp-Ile-Pen-Tyr-Ser-Asn-Arg-Dab-Thr-^DDab-Lys-Cit-Dab-Cys-Tyr] (H-V[Hyp]I[Pen]YSNR[Dab]T[dDab]K[Cit][Dab]CY-OH; disulfide 4-15) | 1 | 0.25 | 0.25 | <1
2 | CC[C@H](C)[C@H](NC(=O)[C@@H]1C[C@@H](O)CN1C(=O)[C@@H](N)C(C)C)C(=O)N[C@@H]1C(=O)N[C@@H](Cc2ccc(O)cc2)C(=O)N[C@@H](CO)C(=O)N[C@@H](CC(N)=O)C(=O)N[C@@H](CCCNC(=N)N)C(=O)N[C@@H](CCN)C(=O)N[C@@H]([C@@H](C)O)C(=O)N[C@H](CCN)C(=O)N[C@@H](CCCCN)C(=O)N[C@@H](CCCNC(=N)N)C(=O)N[C@@H](CCN)C(=O)N[C@H](C(=O)N[C@@H](Cc2ccc(O)cc2)C(=O)O)CSSC1(C)C [Example 54, Val-Hyp-Ile-Pen-Tyr-Ser-Asn-Arg-Dab-Thr-^DDab-Lys-Arg-Dab-Cys-Tyr] (H-V[Hyp]I[Pen]YSNR[Dab]T[dDab]KR[Dab]CY-OH; disulfide 4-15) | 0.25 | 0.0625 | 0.125 | <1
3 | CC[C@H](C)[C@H](NC(=O)[C@@H]1C[C@@H](O)CN1C(=O)[C@@H](N)C(C)C)C(=O)N[C@@H]1C(=O)N[C@@H](Cc2ccc(O)cc2)C(=O)N[C@@H](CO)C(=O)N[C@@H](CC(N)=O)C(=O)N[C@@H](CCCNC(=N)N)C(=O)N[C@@H](CCN)C(=O)N[C@@H]([C@@H](C)O)C(=O)N[C@H](CCN)C(=O)N[C@@H](CCCCN)C(=O)N[C@@H](CCCN)C(=O)N[C@@H](CO)C(=O)N[C@H](C(=O)N[C@@H](Cc2ccc(O)cc2)C(=O)O)CSSC1(C)C [Example 55, Val-Hyp-Ile-Pen-Tyr-Ser-Asn-Arg-Dab-Thr-^DDab-Lys-Orn-Ser-Cys-Tyr] (H-V[Hyp]I[Pen]YSNR[Dab]T[dDab]K[Orn]SCY-OH; disulfide 4-15) | 0.5 | 0.25 | 0.25 | <1
4 | CC[C@H](C)[C@H](NC(=O)[C@@H]1C[C@@H](O)CN1C(=O)[C@@H](N)C(C)C)C(=O)N[C@@H]1C(=O)N[C@@H](Cc2ccc(O)cc2)C(=O)N[C@@H](CCN)C(=O)N[C@@H](CC(N)=O)C(=O)N[C@@H](CCCNC(=N)N)C(=O)N[C@@H](CCN)C(=O)N[C@@H]([C@@H](C)O)C(=O)N[C@H](CCN)C(=O)N[C@@H](CCCCN)C(=O)N[C@@H](CCN)C(=O)N[C@@H](CO)C(=O)N[C@H](C(=O)N[C@@H](Cc2ccc(O)cc2)C(=O)O)CSSC1(C)C [Example 56, Val-Hyp-Ile-Pen-Tyr-Dab-Asn-Arg-Dab-Thr-^DDab-Lys-Dab-Ser-Cys-Tyr] (H-V[Hyp]I[Pen]Y[Dab]NR[Dab]T[dDab]K[Dab]SCY-OH; disulfide 4-15) | 0.25 | 0.125 | 0.25 | <1
5 | CC[C@H](C)[C@H](NC(=O)[C@@H]1C[C@@H](O)CN1C(=O)[C@@H](N)C(C)C)C(=O)N[C@@H]1C(=O)N[C@@H](Cc2ccc(O)cc2)C(=O)N[C@@H](CO)C(=O)N[C@@H](CC(N)=O)C(=O)N[C@@H](CCCNC(=N)N)C(=O)N[C@@H](CCN)C(=O)N[C@@H]([C@@H](C)O)C(=O)N[C@H](CCN)C(=O)N[C@@H](CCCCN)C(=O)N[C@@H](CCN)C(=O)N[C@H](CCN)C(=O)N[C@H](C(=O)N[C@@H](Cc2ccc(O)cc2)C(=O)O)CSSC1(C)C [Example 58, Val-Hyp-Ile-Pen-Tyr-Ser-Asn-Arg-Dab-Thr-^DDab-Lys-Dab-^DDab-Cys-Tyr] (H-V[Hyp]I[Pen]YSNR[Dab]T[dDab]K[Dab][dDab]CY-OH; disulfide 4-15) | 0.25 | 0.125 | 0.125 | <1
6 | CC[C@H](C)[C@H](NC(=O)[C@@H]1C[C@@H](O)CN1C(=O)[C@@H](N)C(C)C)C(=O)N[C@@H]1C(=O)N[C@@H](Cc2ccc(O)cc2)C(=O)N[C@@H](CO)C(=O)N[C@@H](CC(N)=O)C(=O)N[C@@H](CCCNC(=N)N)C(=O)N[C@@H](CCN)C(=O)N[C@@H]([C@@H](C)O)C(=O)N[C@H](CCN)C(=O)N[C@@H](CCCCN)C(=O)N[C@@H](CCN)C(=O)N[C@@H](CCCNC(N)=O)C(=O)N[C@H](C(=O)N[C@@H](Cc2ccc(O)cc2)C(=O)O)CSSC1(C)C [Example 59, Val-Hyp-Ile-Pen-Tyr-Ser-Asn-Arg-Dab-Thr-^DDab-Lys-Dab-Cit-Cys-Tyr] (H-V[Hyp]I[Pen]YSNR[Dab]T[dDab]K[Dab][Cit]CY-OH; disulfide 4-15) | 0.5 | 0.25 | 0.25 | <1
7 | CC[C@H](C)[C@H](NC(=O)[C@@H]1C[C@@H](O)CN1C(=O)[C@@H](N)C(C)C)C(=O)N[C@@H]1C(=O)N[C@@H](Cc2ccc(O)cc2)C(=O)N[C@@H](CO)C(=O)N[C@@H](CC(N)=O)C(=O)N[C@@H](CCCNC(=N)N)C(=O)N[C@@H](CCN)C(=O)N[C@@H]([C@@H](C)O)C(=O)N[C@H](CCN)C(=O)N[C@@H](CCCCN)C(=O)N[C@@H](CCN)C(=O)N[C@@H](Cc2ccc(O)cc2)C(=O)N[C@H](C(=O)N[C@@H](Cc2ccc(O)cc2)C(=O)O)CSSC1(C)C [Example 60, Val-Hyp-Ile-Pen-Tyr-Ser-Asn-Arg-Dab-Thr-^DDab-Lys-Dab-Tyr-Cys-Tyr] (H-V[Hyp]I[Pen]YSNR[Dab]T[dDab]K[Dab]YCY-OH; disulfide 4-15) | 1 | 0.25 | 0.25 | <1

The next lines start with results.

Row | Klebsiella pneumoniae SSI3010 MIC [1] [µg/mL] | Escherichia coli MCR-1 Af45 MIC [2] [µg/mL] | Escherichia coli ATCC 25922 MIC [3] [µg/mL] | Compound | Hemolysis at 0.2 g/L [4] [%]
8 | 0.5 | 0.25 | 0.25 | CC[C@H](C)[C@H](NC(=O)[C@@H]1C[C@@H](O)CN1C(=O)[C@@H](N)C(C)C)C(=O)N[C@@H]1C(=O)N[C@@H](Cc2ccc(O)cc2)C(=O)N[C@@H](CO)C(=O)N[C@@H](CC(N)=O)C(=O)N[C@@H](CCCNC(=N)N)C(=O)N[C@@H](CCN)C(=O)N[C@@H]([C@@H](C)O)C(=O)N[C@H](CCN)C(=O)N[C@@H](CCCCN)C(=O)N[C@@H](CCN)C(=O)N[C@@H](CC(N)=O)C(=O)N[C@H](C(=O)N[C@@H](Cc2ccc(O)cc2)C(=O)O)CSSC1(C)C [Example 61, Val-Hyp-Ile-Pen-Tyr-Ser-Asn-Arg-Dab-Thr-^DDab-Lys-Dab-Asn-Cys-Tyr] (H-V[Hyp]I[Pen]YSNR[Dab]T[dDab]K[Dab]NCY-OH; disulfide 4-15) | <1
9 | 0.25 | 0.0625 | 0.125 | CC[C@H](C)[C@H](NC(=O)[C@@H]1C[C@@H](O)CN1C(=O)[C@@H](N)C(C)C)C(=O)N[C@@H]1C(=O)N[C@@H](Cc2ccc(O)cc2)C(=O)N[C@@H](CO)C(=O)N[C@@H](CC(N)=O)C(=O)N[C@@H](CCCNC(=N)N)C(=O)N[C@@H](CCN)C(=O)N[C@@H]([C@@H](C)O)C(=O)N[C@H](CCN)C(=O)N[C@@H](CCCCN)C(=O)N[C@@H](CCN)C(=O)N[C@@H](CCCCN)C(=O)N[C@H](C(=O)N[C@@H](Cc2ccc(O)cc2)C(=O)O)CSSC1(C)C [Example 62, Val-Hyp-Ile-Pen-Tyr-Ser-Asn-Arg-Dab-Thr-^DDab-Lys-Dab-Lys-Cys-Tyr] (H-V[Hyp]I[Pen]YSNR[Dab]T[dDab]K[Dab]KCY-OH; disulfide 4-15) | <1
10 | 0.25 | 0.0625 | 0.125 | CC[C@H](C)[C@H](NC(=O)[C@@H]1C[C@@H](O)CN1C(=O)[C@@H](N)C(C)C)C(=O)N[C@@H]1C(=O)N[C@@H](Cc2ccc(O)cc2)C(=O)N[C@@H](CO)C(=O)N[C@@H](CC(N)=O)C(=O)N[C@@H](CCCNC(=N)N)C(=O)N[C@@H](CCN)C(=O)N[C@@H]([C@@H](C)O)C(=O)N[C@H](CCN)C(=O)N[C@@H](CCCCN)C(=O)N[C@@H](CCN)C(=O)N[C@@H](CCNC(C)C)C(=O)N[C@H](C(=O)N[C@@H](Cc2ccc(O)cc2)C(=O)O)CSSC1(C)C [Example 63, Val-Hyp-Ile-Pen-Tyr-Ser-Asn-Arg-Dab-Thr-^DDab-Lys-Dab-Dab(iPr)-Cys-Tyr] (H-V[Hyp]I[Pen]YSNR[Dab]T[dDab]K[Dab][Dab(iPr)]CY-OH; disulfide 4-15) | <1
